Assay results: PubChem BioAssay (NCI)
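Five compound concentrations were applied to cells in 96-well plates for 48 hours; endpoints were derived by simple linear interpolation of the resulting dose-response curve. GI50 marks 50% less growth. TGI: total growth inhibition.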

Assays:
Assay in all cases: DTP human tumour cell line panel, 48 h
SF-268 CNS = system: SF-268 CNS
DU-145 prostate = system: DU-145 prostate
A498 renal = system: A498 renal
LOX IMVI melanoma = system: LOX IMVI melanoma
HOP-92 NSCLC = system: HOP-92 NSCLC
OVCAR-8 ovarian = system: OVCAR-8 ovarian
SW-620 colon = system: SW-620 colon
BT-549 breast = system: BT-549 breast
NCI-H226 lung = system: NCI-H226 lung
SR leukemia = system: SR leukemia

SMILES | GI50 (SF-268 CNS) [µM] | TGI (SF-268 CNS) [µM] | GI50 (DU-145 prostate) [µM] | TGI (DU-145 prostate) [µM] | GI50 (A498 renal) [µM] | TGI (A498 renal) [µM] | GI50 (LOX IMVI melanoma) [µM] | TGI (LOX IMVI melanoma) [µM] | GI50 (HOP-92 NSCLC) [µM] | TGI (HOP-92 NSCLC) [µM] | GI50 (OVCAR-8 ovarian) [µM] | TGI (OVCAR-8 ovarian) [µM] | GI50 (SW-620 colon) [µM] | TGI (SW-620 colon) [µM] | GI50 (BT-549 breast) [µM] | TGI (BT-549 breast) [µM] | GI50 (NCI-H226 lung) [µM] | TGI (NCI-H226 lung) [µM] | GI50 (SR leukemia) [µM] | TGI (SR leukemia) [µM]
N/C(=N/O)NOCCC(N)C(=O)O (stereo not given) | > 100 | > 100 | > 100 | > 100 | > 100 | > 100 | > 100 | > 100 | > 100 | > 100 | > 100 | > 100 | > 100 | > 100 | > 100 | > 100 | > 100 | > 100 | > 100 | > 100
[N-]=[N+]=NCCCn1c2c(c3ccccc3c1=O)C(=O)c1cc3c(cc1-2)OCO3 | 81.7 | > 100 | 76 | > 100 | 75 | > 100 | 44.9 | > 100 | 28.1 | > 100 | > 100 | > 100 | > 100 | > 100 | > 100 | > 100 | > 100 | > 100 | 0.157 | > 100
C[C@H]1O[C@@H](O[C@H]2[C@@H](O)C[C@H](O[C@H]3[C@@H](O)C[C@H](O[C@H]4CC[C@]5(C)C6CC[C@]7(C)[C@@H](C8=CC(=O)OC8)CC[C@]7(O)C6CC[C@@H]5C4)O[C@@H]3C)O[C@@H]2C)C[C@H](O)[C@@H]1O (stereo not given in full) | 0.0159 | 0.0578 | 0.0113 | 0.0249 | 0.0351 | 0.262 | 0.0156 | 0.0549 | 0.0354 | 0.149 | 0.0178 | 0.0648 | 0.0178 | 0.0678 | 0.0163 | 0.0508 | 0.0476 | 0.115 |  | 0.0512
COc1ccc(/C=C2\CCC(C)(CN(C)C)C2=O)cc1Br (stereo not given) |  | 23.3 |  | > 100 |  | 50 |  | 35.3 |  | > 85.8 |  | 32.9 |  | 38.4 |  | 45.4 |  | 56.1 |  | 45.7
COc1ccc(N2CCN(c3nc(-c4ccccn4)nc4sc5c(c34)CCCCCC5)CC2)cc1 | > 100 | > 100 | 27.9 | > 100 | 3.3 | > 100 | 6.24 | > 100 | 3.24 | > 100 | 5.23 | > 100 | 5.08 | > 100 | 6.92 | > 100 | 6.49 | > 100 | 3.18 | > 100
Cc1cccc(Nc2ncc(-c3ccccc3)o2)c1 | > 25 | > 25 | > 25 | > 25 | > 25 | > 25 | > 25 | > 25 | > 25 | > 25 | > 25 | > 25 | > 25 | > 25 | > 25 | > 25 | > 25 | > 25 | > 25 | > 25
Nc1nc(N)c2c(n1)NC(c1ccc(Cl)cc1)C1CCc3ccccc3C1=N2 (stereo not given) | 12.4 | 26.9 | 11.2 | 23.3 | 5.34 | 19 | 3.53 | 16.2 | 2.26 | 9.83 | 10.8 | 43.1 | 8.23 | 22.6 | 9.01 | 22.6 | 8.58 | 27.8 | 1.73 | 5.01
Fc1ccc(Nc2ccnc(N3CCN(c4ccnc5cc(Cl)ccc45)CC3)n2)cc1 | 3.67 | 40.3 | 3.96 | 55.1 | 1.81 | 9.61 | 1.82 | 3.62 |  |  | 2.16 | 6.12 | 2.92 | 13.9 | 2.95 | 8.57 | 2.52 | 17.5 | 2.61 | 8.76
C=C1C(=O)O[C@H]2[C@H]1CC/C(COC(=O)NCCc1ccc(Br)cc1)=C\CC[C@@]1(C)O[C@@H]21 | 1.56 | 3.19 | 0.771 | 2.04 | 2.07 | 4.21 | 1.18 | 2.58 | 1.28 | 2.77 | 1.49 | 3.69 | 0.711 | 2.4 | 1.1 | 2.6 | 1.72 | 3.37 | 0.43 | 2.91
CCN(CC(O)COc1ccc2c(c1)[n+]([O-])nc(N)[n+]2[O-])C(C)=O (stereo not given) |  | > 100 |  | > 100 |  | > 100 |  | > 100 |  |  |  | > 100 |  | > 100 |  | > 100 |  | > 100 |  | > 100
Cc1c(-c2c(F)cc(C(N)=O)c3[nH]c4c(c23)CC[C@H](C(C)(C)O)C4)cccc1-n1c(=O)c2cccc(F)c2n(C)c1=O | 4.91 | > 100 | 5.63 | > 100 | 2.8 | 10.2 | 3.13 | > 100 | 1.01 | 6.94 | 4.16 | > 100 | 2.44 | > 100 | 3.93 | 63 | 3.84 | 26.4 | 1.88 | 5.81
Nc1[nH]c(=S)[nH]c(=O)c1N=Nc1c(Br)cc(S(N)(=O)=O)cc1Br |  | > 100 |  | > 100 |  | > 100 |  | > 100 |  | > 100 |  | > 100 |  | > 100 |  | > 100 |  | > 100 |  | > 100
O=C(C#Cc1ccccc1)N1CCCCC1 |  | > 100 |  | > 100 |  | > 100 |  | > 100 |  | > 100 |  | > 100 |  | > 100 |  | > 100 |  | > 100 |  | > 100
CC1NCCC(CC(=O)O)C1CC(=O)O (stereo not given) |  | > 100 |  | > 100 |  | > 100 |  | > 100 |  | > 100 |  | > 100 |  | > 100 |  | > 100 |  | > 100 |  | > 100
COC(=O)C1(N2CCOCC2)CCC([C@@H](c2ccccc2)C(C)[N+](=O)[O-])C1 (stereo not given in full) |  | > 100 |  | 59.6 |  | > 100 |  | > 100 |  |  |  | > 100 |  | > 100 |  | 60.8 |  | > 100 |  | 60.4
